Measured values reported in PubChem BioAssay AID248 (DTP/NCI, 2004).
Values joined by “and” are separate entries in the source; they are usually repeats but may differ in a detail not shown here. Equal entries are not always repeated. Inconclusive results and toxic doses are left out. Cut-off read from the data, not from the text of the source: active = T/C of 150% or more; inactive = T/C below 125%.

Tested on: L1210 leukemia ip in BDF1 mice, survival T/C
Experiment: NCI In Vivo Anticancer Drug Screen. Data for tumor model L1210 Leukemia (intraperitoneal) in B6D2F1 (BDF1) mice
Conditions: endpoint: mean survival time, higher = longer survival
Outline: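 Mice bearing the transplanted tumor received compound or vehicle. Survival of the treated group was divided by that of the vehicle-treated control group to give the ratio.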

[1] = dose: 100.0 mg/kg/injection, schedule: Q01DX009 (ip), vehicle: saline with Tween-80
[2] = dose: 100.0 mg/kg/injection, schedule: Q04DX003 (ip), vehicle: saline with Tween-80
[3] = dose: 200.0 mg/kg/injection, schedule: Q01DX009 (ip), vehicle: saline with Tween-80
[4] = dose: 200.0 mg/kg/injection, schedule: Q04DX003 (ip), vehicle: saline with Tween-80
[5] = dose: 400.0 mg/kg/injection, schedule: Q04DX003 (ip), vehicle: saline with Tween-80
[6] = dose: 100.0 mg/kg/injection, schedule: Q04DX002 (ip), vehicle: saline with Tween-80
[7] = dose: 200.0 mg/kg/injection, schedule: Q04DX002 (ip), vehicle: saline with Tween-80
[8] = dose: 400.0 mg/kg/injection, schedule: Q04DX002 (ip), vehicle: saline with Tween-80
[9] = dose: 100.0 mg/kg/injection, schedule: Q04DX003 (ip), vehicle: Klucel (hydroxypropylcellulose) (HPC)
[10] = dose: 200.0 mg/kg/injection, schedule: Q04DX003 (ip), vehicle: Klucel (hydroxypropylcellulose) (HPC)
[11] = dose: 400.0 mg/kg/injection, schedule: Q04DX003 (ip), vehicle: Klucel (hydroxypropylcellulose) (HPC)

Measured: T/C

c1ccc2c(C3OCC4(CC4)CO3)cccc2c1
inactive: dose: 25.0 mg/kg/injection, schedule: Q01DX001 (ip), vehicle: Klucel (hydroxypropylcellulose) (HPC) 100 % of control | dose: 50.0 mg/kg/injection, schedule: Q01DX001 (ip), vehicle: Klucel (hydroxypropylcellulose) (HPC) 96 % of control | dose: 100.0 mg/kg/injection, schedule: Q01DX001 (ip), vehicle: Klucel (hydroxypropylcellulose) (HPC) 105 % of control

CCN1CC(=O)N(C)C1=S
inactive: dose: 50.0 mg/kg/injection, schedule: Q01DX001 (ip), vehicle: carboxymethylcellulose (CMC) 103 % of control | dose: 100.0 mg/kg/injection, schedule: Q01DX001 (ip), vehicle: carboxymethylcellulose (CMC) 100 % of control | dose: 200.0 mg/kg/injection, schedule: Q01DX001 (ip), vehicle: carboxymethylcellulose (CMC) 97 % of control | dose: 400.0 mg/kg/injection, schedule: Q01DX001 (ip), vehicle: carboxymethylcellulose (CMC) 118 % of control

Cc1cc(C)c(O)c(N=Nc2ccccc2)c1
inactive: dose: 100.0 mg/kg/injection, schedule: Q04DX003 (ip), vehicle: saline sonified 95 % of control | dose: 200.0 mg/kg/injection, schedule: Q04DX003 (ip), vehicle: saline sonified 93 % of control | dose: 400.0 mg/kg/injection, schedule: Q04DX003 (ip), vehicle: saline sonified 91 % of control

C/C(Cc1ccccc1)=N/N(C)C
inactive: [1] 113 % of control | [2] 102 % of control | [3] 104 % of control | [4] 95 % of control | [5] 95 % of control

CCCCOC(=O)C1OC1(CC)c1ccccc1 (stereo not drawn)
inactive: [6] 88 % of control | [7] 97 % of control | [8] 100 % of control

C=CCN(Cc1cnc2nc(N)nc(N)c2n1)c1ccc(C(=O)NC(CCC(=O)O)C(=O)O)cc1 (stereo not drawn)
inactive: dose: 1.5 mg/kg/injection, schedule: Q01DX009 (ip), vehicle: sodium bicarbonate 108 % of control | dose: 3.0 mg/kg/injection, schedule: Q01DX009 (ip), vehicle: sodium bicarbonate 116 % of control | dose: 6.0 mg/kg/injection, schedule: Q01DX009 (ip), vehicle: sodium bicarbonate 118 % of control

O=C(OCCCCCCCOC(=O)c1cccc([N+](=O)[O-])c1)c1cccc([N+](=O)[O-])c1
inactive: dose: 100.0 mg/kg/injection, schedule: Q01DX001 (ip), vehicle: other 98 % of control | dose: 200.0 mg/kg/injection, schedule: Q01DX001 (ip), vehicle: other 101 % of control | dose: 400.0 mg/kg/injection, schedule: Q01DX001 (ip), vehicle: other 107 % of control

CCNc1cc(Cl)nc(N)n1
inactive: [1] 92 % of control | [2] 105 % of control | [3] 101 % of control | [4] 98 % of control | dose: 400.0 mg/kg/injection, schedule: Q01DX009 (ip), vehicle: saline with Tween-80 104 % of control | [5] 104 % of control

C[C@]12CC[C@@H]3c4ccc(O)cc4CC[C@H]3[C@@H]1C[C@@H](O)[C@@H]2O
inactive: dose: 25.0 mg/kg/injection, schedule: Q01DX001 (sc), vehicle: steriod suspending solution 104 % of control | dose: 50.0 mg/kg/injection, schedule: Q01DX001 (sc), vehicle: steriod suspending solution 107 % of control | dose: 100.0 mg/kg/injection, schedule: Q01DX001 (sc), vehicle: steriod suspending solution 109 % of control | dose: 125.0 mg/kg/injection, schedule: Q04DX003 (sc), vehicle: steriod suspending solution 100 % of control | dose: 200.0 mg/kg/injection, schedule: Q01DX001 (sc), vehicle: steriod suspending solution 106 % of control | dose: 250.0 mg/kg/injection, schedule: Q04DX003 (sc), vehicle: steriod suspending solution 105 % of control | dose: 500.0 mg/kg/injection, schedule: Q04DX003 (sc), vehicle: steriod suspending solution 100 % of control

O=[N+]([O-])/C=C/C=C/c1ccco1
inactive: dose: 6.25 mg/kg/injection, schedule: Q04DX002 (ip), vehicle: saline with Tween-80 97 % of control | dose: 12.5 mg/kg/injection, schedule: Q04DX002 (ip), vehicle: saline with Tween-80 101 % of control | dose: 25.0 mg/kg/injection, schedule: Q04DX002 (ip), vehicle: saline with Tween-80 97 % of control and 90 % of control

COC1CCC2CCN(C)C(Cc3ccc(Oc4ccc(CC5C6CC(OC)CCC6CCN5C)cc4)cc3)C2C1 (stereo not drawn)
inactive: dose: 0.39 mg/kg/injection, schedule: Q01DX009 (ip), vehicle: saline with Tween-80 96 % of control | dose: 0.78 mg/kg/injection, schedule: Q01DX009 (ip), vehicle: saline with Tween-80 96 % of control and 108 % of control | dose: 1.56 mg/kg/injection, schedule: Q01DX009 (ip), vehicle: saline with Tween-80 108 % of control | dose: 3.13 mg/kg/injection, schedule: Q01DX009 (ip), vehicle: saline with Tween-80 102 % of control

O=[N+]([O-])c1ccc2c(c1)C(Br)c1ccccc1-2 (stereo not drawn)
inactive: dose: 100.0 mg/kg/injection, schedule: Q01DX009 (ip), vehicle: Klucel (hydroxypropylcellulose) (HPC) 89 % of control | [9] 95 % of control | dose: 200.0 mg/kg/injection, schedule: Q01DX009 (ip), vehicle: Klucel (hydroxypropylcellulose) (HPC) 94 % of control | [10] 92 % of control | [11] 94 % of control

c1ccc2c[n+](CCCCCCCCCC[n+]3ccc4ccccc4c3)ccc2c1
inactive: dose: 1.0 mg/kg/injection, schedule: Q01DX009 (ip), vehicle: saline 106 % of control | dose: 2.0 mg/kg/injection, schedule: Q01DX009 (ip), vehicle: saline 97 % of control | dose: 4.0 mg/kg/injection, schedule: Q01DX009 (ip), vehicle: saline 92 % of control | dose: 8.0 mg/kg/injection, schedule: Q04DX003 (ip), vehicle: saline 97 % of control | dose: 16.0 mg/kg/injection, schedule: Q04DX003 (ip), vehicle: saline 92 % of control | dose: 32.0 mg/kg/injection, schedule: Q04DX003 (ip), vehicle: saline 89 % of control

COc1ccc(NC(=O)C2C3C=CC(C3)C2C(=O)Nc2ccc(OC)cc2)cc1 (stereo not drawn)
inactive: [2] 100 % of control | [4] 87 % of control | [5] 91 % of control

CCOCCOCCOC(C)Oc1ccc(Cl)cc1C (stereo not drawn)
inactive: [6] 123 % of control | [7] 100 % of control | [8] 103 % of control

CC1(C)CN1P(=O)(Oc1ccccc1)N1CC1(C)C (stereo not drawn)
inactive: dose: 88.0 mg/kg/injection, schedule: Q01DX001 (ip), vehicle: carboxymethylcellulose (CMC) 111 % of control

Cc1cc2nnc(C)n2c2ccccc12
inactive: dose: 50.0 mg/kg/injection, schedule: Q01DX001 (ip), vehicle: saline 103 % of control | dose: 100.0 mg/kg/injection, schedule: Q01DX001 (ip), vehicle: saline 103 % of control

CCOC(=O)CC1c2nc3ccccc3cc2CN1C(=O)OCC (stereo not drawn)
inactive: [9] 100 % of control | [10] 102 % of control | [11] 103 % of control

CCC(N)Cc1ccc(OC)c(OC)c1 (stereo not drawn)
inactive: dose: 100.0 mg/kg/injection, schedule: Q01DX009 (ip), vehicle: saline 98 % of control | dose: 100.0 mg/kg/injection, schedule: Q04DX003 (ip), vehicle: saline 93 % of control | dose: 200.0 mg/kg/injection, schedule: Q01DX009 (ip), vehicle: saline 98 % of control | dose: 200.0 mg/kg/injection, schedule: Q04DX003 (ip), vehicle: saline 97 % of control

CC1=C(C)C2(C)C1(C)C1(C)C(C)=C(C)C21C (stereo not drawn)
inactive: dose: 100.0 mg/kg/injection, schedule: Q01DX009 (ip), vehicle: acetone 86 % of control | dose: 200.0 mg/kg/injection, schedule: Q01DX009 (ip), vehicle: acetone 86 % of control
